Drawing on ChEMBL document CHEMBL1649265, “Antimicrobial susceptibilities of Mycoplasma genitalium strains examined by broth dilution and quantitative PCR” (2009), this text covers MIC50, MIC90 and MIC for four compounds.

In brackets after ≈: the same amount, converted by molar mass.

Assay type in all cases: functional
Holding throughout (conditions): Mycoplasmoides genitalium

Assay [1] relates to Mycoplasma genitalium. In words: Antibacterial activity against Mycoplasma genitalium by broth dilution method.
Assay [2] relates to Mycoplasma genitalium. Nature of the assay: Antibacterial activity against Mycoplasma genitalium by quantitative TaqMan PCR method.
In assay [3] the test system is Mycoplasma genitalium. In words: Antibacterial activity against Mycoplasma genitalium G37 by broth dilution method.
Assay [4] has as its system Mycoplasma genitalium. In words: Antibacterial activity against Mycoplasma genitalium M30 by broth dilution method.
Assay [5] relates to Mycoplasma genitalium. Nature of the assay: Antibacterial activity against Mycoplasma genitalium R32 by broth dilution method.
In assay [6] the test system is Mycoplasma genitalium. Nature of the assay: Antibacterial activity against Mycoplasma genitalium TW10-5G by broth dilution method.
Assay [7] relates to Mycoplasma genitalium. In words: Antibacterial activity against Mycoplasma genitalium TW10-6G by broth dilution method.
The subject of assay [8] is Mycoplasma genitalium. In words: Antibacterial activity against Mycoplasma genitalium TW48-5G by broth dilution method.
In assay [9] the test system is Mycoplasma genitalium. Nature of the assay: Antibacterial activity against Mycoplasma genitalium UTMB-10G by broth dilution method.
Assay [10] has as its system Mycoplasma genitalium. Nature of the assay: Antibacterial activity against Mycoplasma genitalium M2282 by broth dilution method.
Assay [11] concerns Mycoplasma genitalium. In words: Antibacterial activity against Mycoplasma genitalium M2300 by broth dilution method.
The subject of assay [12] is Mycoplasma genitalium. In words: Antibacterial activity against Mycoplasma genitalium M2321 by broth dilution method.
For assay [13], the system named is Mycoplasma genitalium. In words: Antibacterial activity against Mycoplasma genitalium M2341 by broth dilution method.
For assay [14], the system named is Mycoplasma genitalium. In words: Antibacterial activity against Mycoplasma genitalium M6257 by broth dilution method.
For assay [15], the system named is Mycoplasma genitalium. Nature of the assay: Antibacterial activity against Mycoplasma genitalium M6280 by broth dilution method.
The subject of assay [16] is Mycoplasma genitalium. In words: Antibacterial activity against Mycoplasma genitalium M6285 by broth dilution method.
Assay [17] has as its system Mycoplasma genitalium. In words: Antibacterial activity against Mycoplasma genitalium M6286 by broth dilution method.
Assay [18] deals with Mycoplasma genitalium. Nature of the assay: Antibacterial activity against Mycoplasma genitalium M6328 by broth dilution method.
Assay [19] deals with Mycoplasma genitalium. In words: Antibacterial activity against Mycoplasma genitalium M6090 by broth dilution method.
Assay [20] deals with Mycoplasma genitalium. Nature of the assay: Antibacterial activity against Mycoplasma genitalium M6151 by broth dilution method.
The subject of assay [21] is Mycoplasma genitalium. In words: Antibacterial activity against Mycoplasma genitalium M6282 by broth dilution method.
Assay [22] relates to Mycoplasma genitalium. Nature of the assay: Antibacterial activity against Mycoplasma genitalium M6283 by broth dilution method.
For assay [23], the system named is Mycoplasma genitalium. Nature of the assay: Antibacterial activity against Mycoplasma genitalium M6284 by broth dilution method.
Assay [24] relates to Mycoplasma genitalium. In words: Antibacterial activity against Mycoplasma genitalium M6287 by broth dilution method.

Regarding `CC[C@H]1OC(=O)[C@H](C)[C@@H](O[C@H]2C[C@@](C)(OC)[C@@H](O)[C@H](C)O2)[C@H](C)[C@@H](O[C@@H]2O[C@H](C)C[C@H](N(C)C)[C@H]2O)[C@](C)(O)C[C@@H](C)CN(C)[C@H](C)[C@@H](O)[C@]1(C)O` [AZITHROMYCIN], the MIC50 with Mycoplasma genitalium [1] was 0.001 µg/mL (≈ 0.00134 µM); in the assay on Mycoplasma genitalium [2], 0.004 µg/mL (≈ 0.00534 µM). In addition, the results for the MIC90 against Mycoplasma genitalium [1] and in the assay with Mycoplasma genitalium [2] were 0.002 µg/mL (≈ 0.00267 µM) and 0.008 µg/mL (≈ 0.0107 µM), respectively. The MIC against Mycoplasma genitalium [3], in the assay with Mycoplasma genitalium [4], in the assay with Mycoplasma genitalium [5], against Mycoplasma genitalium [6], in the assay with Mycoplasma genitalium [7] and in the assay with Mycoplasma genitalium [8] was 0.001 µg/mL (≈ 0.00134 µM) each time. The same compound returned an MIC in the assay with Mycoplasma genitalium [9] of 0.001 µg/mL (≈ 0.00134 µM).

On to `O=C(O)c1cn(C2CC2)c2cc(N3CCNCC3)c(F)cc2c1=O` [CIPROFLOXACIN], for which the MIC50 against Mycoplasma genitalium [2] is 2 µg/mL (≈ 6.04 µM). The compound also had an MIC90 in the assay with Mycoplasma genitalium [2] of 8 µg/mL (≈ 24.1 µM). Further, the MIC with Mycoplasma genitalium [3] (read-out: MIC), in the assay with Mycoplasma genitalium [4] (read-out: MIC), in the assay on Mycoplasma genitalium [5] (read-out: MIC), in the assay on Mycoplasma genitalium [6] (read-out: MIC), in the assay with Mycoplasma genitalium [7] (read-out: MIC) and in the assay on Mycoplasma genitalium [8] (read-out: MIC) was 0.004 µg/mL (≈ 0.0121 µM) throughout. For the same compound, the MIC came out at 0.004 µg/mL (≈ 0.0121 µM) in the assay with Mycoplasma genitalium [9] (read-out: MIC); 0.063 µg/mL (≈ 0.19 µM) with Mycoplasma genitalium [10]; 0.063 µg/mL (≈ 0.19 µM) in the assay on Mycoplasma genitalium [11]; 0.063 µg/mL (≈ 0.19 µM) with Mycoplasma genitalium [12]; 0.063 µg/mL (≈ 0.19 µM) against Mycoplasma genitalium [13]; 0.063 µg/mL (≈ 0.19 µM) in the assay with Mycoplasma genitalium [14]. In addition, the MIC with Mycoplasma genitalium [15], against Mycoplasma genitalium [16], against Mycoplasma genitalium [17], against Mycoplasma genitalium [18], against Mycoplasma genitalium [19] and in the assay with Mycoplasma genitalium [20] was 0.063 µg/mL (≈ 0.19 µM) throughout. In addition, the minimal inhibitory concentration (MIC) against Mycoplasma genitalium [21], with Mycoplasma genitalium [22], against Mycoplasma genitalium [23] and in the assay on Mycoplasma genitalium [24] was 0.063 µg/mL (≈ 0.19 µM) throughout.

`CC[C@H]1OC(=O)[C@H](C)[C@@H](O[C@H]2C[C@@](C)(OC)[C@@H](O)[C@H](C)O2)[C@H](C)[C@@H](O[C@@H]2O[C@H](C)C[C@H](N(C)C)[C@H]2O)[C@](C)(OC)C[C@@H](C)C(=O)[C@H](C)[C@@H](O)[C@]1(C)O` [CLARITHROMYCIN]: the MIC50 against Mycoplasma genitalium [1] was found to be 0.004 µg/mL (≈ 0.00535 µM); against Mycoplasma genitalium [2], 0.032 µg/mL (≈ 0.0428 µM). Further, the figures for the MIC90 against Mycoplasma genitalium [1] and against Mycoplasma genitalium [2] were 0.008 µg/mL (≈ 0.0107 µM) and 0.063 µg/mL (≈ 0.0842 µM), respectively. For the same compound, the MIC against Mycoplasma genitalium [3], against Mycoplasma genitalium [4], in the assay on Mycoplasma genitalium [5], against Mycoplasma genitalium [6], against Mycoplasma genitalium [7] and against Mycoplasma genitalium [8] was 0.002 µg/mL (≈ 0.00267 µM) throughout. This compound also came in with an MIC against Mycoplasma genitalium [9] of 0.002 µg/mL (≈ 0.00267 µM).

Consider `C[C@H]1c2cccc(O)c2C(=O)C2=C(O)[C@]3(O)C(=O)C(C(N)=O)=C(O)[C@@H](N(C)C)[C@@H]3[C@@H](O)[C@@H]21.O` [DOXYCYCLINE], for which the MIC50 in the assay on Mycoplasma genitalium [1] (read-out: MIC50) was 0.125 µg/mL; in the assay with Mycoplasma genitalium [2], 0.25 µg/mL. For the same compound, the MIC90 is 0.25 µg/mL with Mycoplasma genitalium [1] (read-out: MIC90) and 0.5 µg/mL with Mycoplasma genitalium [2]. The MIC in the assay with Mycoplasma genitalium [3] (read-out: MIC), in the assay on Mycoplasma genitalium [4] (read-out: MIC), with Mycoplasma genitalium [5] (read-out: MIC), with Mycoplasma genitalium [6] (read-out: MIC), with Mycoplasma genitalium [7] (read-out: MIC) and in the assay on Mycoplasma genitalium [8] (read-out: MIC) was 0.063 µg/mL throughout. The MIC in the assay with Mycoplasma genitalium [9] (read-out: MIC), against Mycoplasma genitalium [10], in the assay with Mycoplasma genitalium [11], in the assay with Mycoplasma genitalium [12], with Mycoplasma genitalium [13] and in the assay on Mycoplasma genitalium [14] was 0.063 µg/mL throughout. In addition, the MIC with Mycoplasma genitalium [15], in the assay on Mycoplasma genitalium [16], against Mycoplasma genitalium [17], in the assay with Mycoplasma genitalium [18], in the assay on Mycoplasma genitalium [19] and in the assay with Mycoplasma genitalium [20] was 0.063 µg/mL in each case. The MIC in the assay on Mycoplasma genitalium [21], in the assay on Mycoplasma genitalium [22], with Mycoplasma genitalium [23] and in the assay on Mycoplasma genitalium [24] was 0.063 µg/mL throughout.
